Reference: PubChem BioAssay AID248 (DTP/NCI, 2004)
Inconclusive results and toxic doses are left out. Cut-off read from the data, not from the text of the source: active = T/C of 150% or more; inactive = T/C below 125%.

System: L1210 leukemia ip in BDF1 mice, survival T/C
Assay: NCI In Vivo Anticancer Drug Screen. Data for tumor model L1210 Leukemia (intraperitoneal) in B6D2F1 (BDF1) mice
Settings: endpoint: mean survival time, higher = longer survival
In short: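 Tumor cells were implanted, animals were treated, and survival was followed. The result divides the treated measurement by the vehicle-control measurement.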

[1] = dose: 100.0 mg/kg/injection, schedule: Q01DX009 (ip), vehicle: Klucel (hydroxypropylcellulose) (HPC)
[2] = dose: 200.0 mg/kg/injection, schedule: Q01DX009 (ip), vehicle: Klucel (hydroxypropylcellulose) (HPC)
[3] = dose: 400.0 mg/kg/injection, schedule: Q01DX009 (ip), vehicle: Klucel (hydroxypropylcellulose) (HPC)
[4] = dose: 100.0 mg/kg/injection, schedule: Q04DX003 (ip), vehicle: saline with Tween-80
[5] = dose: 200.0 mg/kg/injection, schedule: Q04DX003 (ip), vehicle: saline with Tween-80
[6] = dose: 100.0 mg/kg/injection, schedule: Q01DX001 (ip), vehicle: saline
[7] = dose: 200.0 mg/kg/injection, schedule: Q01DX001 (ip), vehicle: saline
[8] = dose: 100.0 mg/kg/injection, schedule: Q04DX003 (ip), vehicle: Klucel (hydroxypropylcellulose) (HPC)
[9] = dose: 200.0 mg/kg/injection, schedule: Q04DX003 (ip), vehicle: Klucel (hydroxypropylcellulose) (HPC)
[10] = dose: 400.0 mg/kg/injection, schedule: Q04DX003 (ip), vehicle: Klucel (hydroxypropylcellulose) (HPC)
[11] = dose: 100.0 mg/kg/injection, schedule: Q01DX009 (ip), vehicle: saline with Tween-80
[12] = dose: 200.0 mg/kg/injection, schedule: Q01DX009 (ip), vehicle: saline with Tween-80
[13] = dose: 400.0 mg/kg/injection, schedule: Q01DX001 (ip), vehicle: saline
[14] = dose: 100.0 mg/kg/injection, schedule: Q04DX003 (ip), vehicle: saline
[15] = dose: 200.0 mg/kg/injection, schedule: Q04DX003 (ip), vehicle: saline
[16] = dose: 400.0 mg/kg/injection, schedule: Q04DX003 (ip), vehicle: saline
[17] = dose: 50.0 mg/kg/injection, schedule: Q01DX001 (ip), vehicle: saline

Measured: T/C

N=C([Se])c1c(N)ncn1C1OC(CO)C(O)C1O (stereo not given)
inactive: dose: 12.5 mg/kg/injection, schedule: Q01DX005 (ip), vehicle: saline 98 % of control | dose: 25.0 mg/kg/injection, schedule: Q01DX005 (ip), vehicle: saline 94 % of control | dose: 50.0 mg/kg/injection, schedule: Q01DX005 (ip), vehicle: saline 96 % of control

Cc1cccc(CN(CC(=O)O)S(C)(=O)=O)c1
inactive: dose: 100.0 mg/kg/injection, schedule: Q01DX009 (ip), vehicle: other 102 % of control | dose: 100.0 mg/kg/injection, schedule: Q04DX003 (ip), vehicle: other 100 % of control | dose: 200.0 mg/kg/injection, schedule: Q01DX009 (ip), vehicle: other 100 % of control | dose: 200.0 mg/kg/injection, schedule: Q04DX003 (ip), vehicle: other 98 % of control | dose: 400.0 mg/kg/injection, schedule: Q01DX009 (ip), vehicle: other 100 % of control | dose: 400.0 mg/kg/injection, schedule: Q04DX003 (ip), vehicle: other 93 % of control

Cc1ccc(Cl)cc1NS(=O)(=O)c1ccccc1[N+](=O)[O-]
inactive: [1] 93 % of control | [2] 93 % of control | [3] 96 % of control

Nc1nc2c(ncn2-c2cccc(Cl)c2)c(=O)[nH]1
inactive: [4] 95 % of control | [5] 91 % of control

CC(=O)Nc1ncnc(NC(C)=O)c1N=O
inactive: [6] 93 % of control | [7] 102 % of control

CCc1ccc(Nc2c([N+](=O)[O-])cc(C)cc2[N+](=O)[O-])cc1
inactive: [1] 97 % of control | [8] 103 % of control | [2] 105 % of control | [9] 108 % of control | [3] 113 % of control | [10] 102 % of control

CN(C)CCCN(C)CCCCN(C)CCCN(C)C
inactive: [6] 96 % of control

c1ccc(Cc2ccncc2)cc1
inactive: [11] 101 % of control | [12] 106 % of control

C=C1CC2(c3ccccc3)C(=O)C1(c1ccccc1)C(c1ccccc1)=C2c1ccccc1 (stereo not given)
inactive: dose: 50.0 mg/kg/injection, schedule: Q01DX001 (ip), vehicle: carboxymethylcellulose (CMC) 96 % of control | dose: 200.0 mg/kg/injection, schedule: Q01DX001 (ip), vehicle: carboxymethylcellulose (CMC) 90 % of control | dose: 400.0 mg/kg/injection, schedule: Q01DX001 (ip), vehicle: carboxymethylcellulose (CMC) 89 % of control

COc1ccccc1[As](=O)(O)CC(O)COc1ccccc1 (stereo not given)
inactive: dose: 25.0 mg/kg/injection, schedule: Q04DX003 (ip), vehicle: saline with Tween-80 91 % of control

BrCOCCCCOCBr
inactive: dose: 44.0 mg/kg/injection, schedule: Q01DX009 (ip), vehicle: saline with Tween-80 109 % of control | dose: 50.0 mg/kg/injection, schedule: Q01DX001 (ip), vehicle: saline with Tween-80 102 % of control | dose: 50.0 mg/kg/injection, schedule: Q01DX009 (ip), vehicle: saline with Tween-80 108 % of control | dose: 50.0 mg/kg/injection, schedule: Q04DX002 (ip), vehicle: saline with Tween-80 105 % of control | dose: 50.0 mg/kg/injection, schedule: Q04DX003 (ip), vehicle: saline with Tween-80 110 % of control | dose: 67.0 mg/kg/injection, schedule: Q01DX009 (ip), vehicle: saline with Tween-80 112 % of control | dose: 100.0 mg/kg/injection, schedule: Q01DX001 (ip), vehicle: saline with Tween-80 102 % of control | [11] 109 % of control | dose: 100.0 mg/kg/injection, schedule: Q04DX002 (ip), vehicle: saline with Tween-80 107 % of control | [4] 107 % of control | dose: 150.0 mg/kg/injection, schedule: Q01DX009 (ip), vehicle: saline with Tween-80 107 % of control | dose: 200.0 mg/kg/injection, schedule: Q01DX001 (ip), vehicle: saline with Tween-80 104 % of control | [12] 104 % of control | dose: 200.0 mg/kg/injection, schedule: Q04DX002 (ip), vehicle: saline with Tween-80 105 % of control | [5] 109 % of control | dose: 400.0 mg/kg/injection, schedule: Q01DX001 (ip), vehicle: saline with Tween-80 107 % of control | dose: 400.0 mg/kg/injection, schedule: Q04DX002 (ip), vehicle: saline with Tween-80 91 % of control | dose: 400.0 mg/kg/injection, schedule: Q04DX003 (ip), vehicle: saline with Tween-80 103 % of control

O=C1c2cccc3c(Br)ccc(c23)C(=O)N1C1CCCCCCCCCCC1
inactive: [11] 97 % of control | [12] 90 % of control

Cc1[nH]c(=O)[nH]c(=O)c1CCO
inactive: [6] 96 % of control | [7] 102 % of control | [13] 100 % of control

CCC(C(N)=O)N1C(=O)C2C3CCC(O3)C2C1=O (stereo not given)
inactive: [14] 101 % of control | [15] 97 % of control | [16] 101 % of control

COc1cc(OC)c2c(=O)c(O)c(-c3ccc(OC)c(OC)c3)oc2c1
inactive: [17] 91 % of control | [6] 98 % of control | [7] 98 % of control | [13] 96 % of control

BrC1CCCCCC(Br)C12OCCO2 (stereo not given)
inactive: [1] 95 % of control | [8] 102 % of control | [2] 98 % of control | [9] 104 % of control | [3] 101 % of control | [10] 100 % of control

CC(C)CCCC(=O)O
inactive: [6] 97 % of control | [7] 100 % of control | [13] 89 % of control

Cc1cc(C)c(C(C)C)cc1C(C)C
inactive: [14] 100 % of control | [15] 100 % of control | [16] 90 % of control

Cc1ccc(C)c2c1c1ccccc1n2N=O
inactive: [17] 97 % of control | [6] 100 % of control | [7] 100 % of control | [13] 114 % of control

N#Cc1cccc(-c2nc3ncnc(N)c3[nH]2)c1
inactive: [8] 94 % of control | [9] 96 % of control | [10] 92 % of control

CCCCOB(CCl)OCCCC
inactive: dose: 6.25 mg/kg/injection, schedule: Q04DX003 (ip), vehicle: saline sonified 103 % of control | dose: 12.5 mg/kg/injection, schedule: Q04DX003 (ip), vehicle: saline sonified 97 % of control | dose: 25.0 mg/kg/injection, schedule: Q04DX003 (ip), vehicle: saline sonified 100 % of control

CCOC(=O)CCC1CCCC1CC(=O)OCC (stereo not given)
inactive: dose: 100.0 mg/kg/injection, schedule: Q01DX001 (ip), vehicle: acetone 97 % of control | dose: 200.0 mg/kg/injection, schedule: Q01DX001 (ip), vehicle: acetone 101 % of control | dose: 400.0 mg/kg/injection, schedule: Q01DX001 (ip), vehicle: acetone 86 % of control

CC1(C)CC(Cc2ccccc2)C(=O)O1 (stereo not given)
inactive: [8] 93 % of control | [9] 90 % of control | [10] 100 % of control

COc1ccc(/C=N\NC(=O)CCCC(=O)N/N=C/c2ccc(OC)cc2)cc1
inactive: dose: 50.0 mg/kg/injection, schedule: Q01DX001 (ip), vehicle: other 93 % of control | dose: 100.0 mg/kg/injection, schedule: Q01DX001 (ip), vehicle: other 88 % of control | dose: 200.0 mg/kg/injection, schedule: Q01DX001 (ip), vehicle: other 90 % of control
